# Reference: ChEMBL document CHEMBL4387718, “Design, synthesis of orally bioavailable novel anaplastic lymphoma kinase (ALK) inhibitor diphenylaminopyrimidine analogs and efficacy study on NCI-H2228 xenografts mice model” (Bioorg Med Chem Lett, 2019)
# Experiments:
# [1] = test system: NCI-H3122; test: Growth inhibition of human NCI-H3122 cells; assay type: functional, cell-based
# [2] = test system: NCI-H2228; test: Growth inhibition of human NCI-H2228 cells; assay type: functional, cell-based
# [3] = test system: NCI-H2228; test: Antitumor activity against human NCI-H2228 cells harboring EML4-fused ALK variant xenografted in po dosed SCID Beige nude mouse assessed as tumor growth inhibition administered once daily for 14 days measured twice a week for 21 days during compound dosing; assay type: functional, organism-based; settings: tested as the 2H-labelled form
# [4] = molecular target: ALK tyrosine kinase receptor (Homo sapiens, UniProt Q9UM73, L1196M); test: Inhibition of ALK L1196M mutant (unknown origin)
# Chain of ALK tyrosine kinase receptor (Homo sapiens, UniProt Q9UM73, L1196M) (Q9UM73 19-1620 L1196M limits assumed): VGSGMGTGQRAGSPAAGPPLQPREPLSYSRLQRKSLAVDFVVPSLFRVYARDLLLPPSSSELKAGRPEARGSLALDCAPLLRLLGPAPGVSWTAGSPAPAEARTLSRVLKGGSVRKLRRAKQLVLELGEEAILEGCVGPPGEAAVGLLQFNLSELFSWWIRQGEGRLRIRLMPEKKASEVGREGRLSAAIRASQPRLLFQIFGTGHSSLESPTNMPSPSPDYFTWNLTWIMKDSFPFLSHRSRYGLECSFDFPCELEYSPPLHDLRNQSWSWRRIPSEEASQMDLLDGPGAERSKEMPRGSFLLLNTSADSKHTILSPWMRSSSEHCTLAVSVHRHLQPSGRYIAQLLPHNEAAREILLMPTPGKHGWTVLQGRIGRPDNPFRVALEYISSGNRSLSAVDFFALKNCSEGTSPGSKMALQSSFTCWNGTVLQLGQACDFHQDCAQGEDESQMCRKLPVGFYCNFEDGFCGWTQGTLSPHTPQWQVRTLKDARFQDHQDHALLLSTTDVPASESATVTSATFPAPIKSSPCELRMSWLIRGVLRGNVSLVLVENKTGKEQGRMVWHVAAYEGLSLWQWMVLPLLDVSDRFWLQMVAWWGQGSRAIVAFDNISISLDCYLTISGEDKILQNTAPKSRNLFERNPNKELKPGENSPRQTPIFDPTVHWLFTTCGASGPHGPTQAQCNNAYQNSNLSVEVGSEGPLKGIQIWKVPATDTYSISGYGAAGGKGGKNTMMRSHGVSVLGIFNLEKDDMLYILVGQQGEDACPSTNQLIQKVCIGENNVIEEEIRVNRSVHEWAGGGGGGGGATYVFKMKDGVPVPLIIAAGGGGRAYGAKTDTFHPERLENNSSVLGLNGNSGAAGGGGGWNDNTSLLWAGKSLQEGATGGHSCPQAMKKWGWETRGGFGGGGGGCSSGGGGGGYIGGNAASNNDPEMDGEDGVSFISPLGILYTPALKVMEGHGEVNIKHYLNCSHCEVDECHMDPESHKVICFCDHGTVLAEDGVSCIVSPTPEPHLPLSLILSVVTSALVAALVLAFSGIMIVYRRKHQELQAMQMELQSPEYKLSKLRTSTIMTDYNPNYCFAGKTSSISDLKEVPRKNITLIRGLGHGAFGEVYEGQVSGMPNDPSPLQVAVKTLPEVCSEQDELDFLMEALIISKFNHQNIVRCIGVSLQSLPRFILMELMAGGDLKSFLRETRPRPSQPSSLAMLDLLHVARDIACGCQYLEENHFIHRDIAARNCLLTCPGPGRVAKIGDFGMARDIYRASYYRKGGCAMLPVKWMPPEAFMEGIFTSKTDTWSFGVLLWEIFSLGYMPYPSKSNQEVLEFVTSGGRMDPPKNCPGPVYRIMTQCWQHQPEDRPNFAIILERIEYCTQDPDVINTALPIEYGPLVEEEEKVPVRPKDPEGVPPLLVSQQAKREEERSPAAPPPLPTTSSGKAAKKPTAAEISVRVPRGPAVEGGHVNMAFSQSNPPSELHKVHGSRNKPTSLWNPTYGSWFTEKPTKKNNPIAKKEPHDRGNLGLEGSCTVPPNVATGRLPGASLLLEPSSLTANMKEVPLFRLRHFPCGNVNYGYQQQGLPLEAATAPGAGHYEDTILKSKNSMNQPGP
# [5] = molecular target: ALK tyrosine kinase receptor (Homo sapiens, UniProt Q9UM73); test: Inhibition of wild-type ALK (unknown origin)
# Chain of ALK tyrosine kinase receptor (Homo sapiens, UniProt Q9UM73) (Q9UM73 whole entry): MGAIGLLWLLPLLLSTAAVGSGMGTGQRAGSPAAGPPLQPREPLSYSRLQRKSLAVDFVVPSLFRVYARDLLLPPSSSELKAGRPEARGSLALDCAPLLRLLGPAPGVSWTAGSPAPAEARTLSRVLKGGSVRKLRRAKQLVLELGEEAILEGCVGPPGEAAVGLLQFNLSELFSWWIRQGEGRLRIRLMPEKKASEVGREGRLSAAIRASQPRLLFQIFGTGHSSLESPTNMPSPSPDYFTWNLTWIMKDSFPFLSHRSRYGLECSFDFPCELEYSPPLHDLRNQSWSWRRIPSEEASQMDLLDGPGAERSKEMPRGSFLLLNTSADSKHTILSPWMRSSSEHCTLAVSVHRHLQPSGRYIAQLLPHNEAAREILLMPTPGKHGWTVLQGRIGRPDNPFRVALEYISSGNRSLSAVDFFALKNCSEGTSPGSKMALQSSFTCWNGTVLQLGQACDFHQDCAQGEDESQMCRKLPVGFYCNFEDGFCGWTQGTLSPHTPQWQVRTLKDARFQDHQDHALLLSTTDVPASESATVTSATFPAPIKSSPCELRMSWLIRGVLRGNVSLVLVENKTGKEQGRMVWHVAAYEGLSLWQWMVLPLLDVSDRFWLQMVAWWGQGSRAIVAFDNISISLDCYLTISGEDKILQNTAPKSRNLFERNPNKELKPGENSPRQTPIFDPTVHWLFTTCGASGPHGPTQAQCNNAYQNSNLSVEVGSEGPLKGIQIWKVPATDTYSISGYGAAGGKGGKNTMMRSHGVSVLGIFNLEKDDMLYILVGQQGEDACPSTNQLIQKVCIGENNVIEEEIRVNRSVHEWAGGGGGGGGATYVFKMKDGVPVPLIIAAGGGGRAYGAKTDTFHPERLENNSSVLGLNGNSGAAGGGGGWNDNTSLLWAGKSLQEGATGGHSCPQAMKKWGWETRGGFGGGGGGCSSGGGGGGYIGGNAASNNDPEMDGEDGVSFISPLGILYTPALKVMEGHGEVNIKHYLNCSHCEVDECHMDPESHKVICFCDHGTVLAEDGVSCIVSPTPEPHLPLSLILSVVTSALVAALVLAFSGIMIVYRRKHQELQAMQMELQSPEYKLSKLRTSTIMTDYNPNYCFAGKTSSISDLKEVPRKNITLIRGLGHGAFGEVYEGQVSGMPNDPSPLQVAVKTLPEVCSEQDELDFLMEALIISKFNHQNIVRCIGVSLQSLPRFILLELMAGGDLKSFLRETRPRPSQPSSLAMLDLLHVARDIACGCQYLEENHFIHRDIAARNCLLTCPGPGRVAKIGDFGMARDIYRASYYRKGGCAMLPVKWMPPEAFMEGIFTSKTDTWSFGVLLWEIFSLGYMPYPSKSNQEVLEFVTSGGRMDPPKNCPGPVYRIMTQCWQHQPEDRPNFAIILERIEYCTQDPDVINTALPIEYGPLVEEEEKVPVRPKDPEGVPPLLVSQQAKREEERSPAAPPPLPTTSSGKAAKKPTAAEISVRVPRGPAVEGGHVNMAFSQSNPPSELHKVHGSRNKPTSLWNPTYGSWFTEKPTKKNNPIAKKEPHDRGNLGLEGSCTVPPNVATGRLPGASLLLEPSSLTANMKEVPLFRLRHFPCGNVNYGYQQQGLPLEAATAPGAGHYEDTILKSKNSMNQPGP
# [6] = molecular target: ALK tyrosine kinase receptor (Homo sapiens, UniProt Q9UM73, F1174L); test: Inhibition of ALK F1174L mutant (unknown origin)
# Chain of ALK tyrosine kinase receptor (Homo sapiens, UniProt Q9UM73, F1174L) (Q9UM73 19-1620 F1174L limits assumed): as the sequence (Q9UM73 19-1620 L1196M limits assumed) above, with F1156L, M1178L counted along it
# [7] = test system: NCI-H2228; test: Antitumor activity against human NCI-H2228 cells harboring EML4-fused ALK variant xenografted in SCID Beige nude mouse assessed as tumor growth inhibition at 10 mg/kg, po administered once daily for 14 days measured twice per week for 21 days during compound dosing relative to control; assay type: functional; settings: read-out: TGI
# [8] = AUC (0 to t) in SCID Beige nude mouse xenografted with human NCI-H2228 cells harboring EML4-fused ALK variant at 3 to 30 mg/kg, po administered once daily for 14 days; assay type: ADME, organism-based; settings: in vivo, 336 h
# [9] = Tmax in SCID Beige nude mouse xenografted with human NCI-H2228 cells harboring EML4-fused ALK variant at 3 to 30 mg/kg, po administered once daily for 14 days; assay type: ADME, organism-based; settings: in vivo
# [10] = Oral bioavailability in SCID Beige nude mouse xenografted with human NCI-H2228 cells harboring EML4-fused ALK variant at 3 to 30 mg/kg administered once daily for 14 days relative to control; assay type: ADME, organism-based; settings: in vivo
# [11] = test system: NCI-H2228; test: Antitumor activity against human NCI-H2228 cells harboring EML4-fused ALK variant xenografted in SCID Beige nude mouse assessed as tumor growth inhibition at 30 mg/kg, po administered once daily for 14 days measured twice per week for 21 days during compound dosing relative to control; assay type: functional; settings: read-out: TGI
# [12] = Cmax in SCID Beige nude mouse xenografted with human NCI-H2228 cells harboring EML4-fused ALK variant at 3 to 30 mg/kg, po administered once daily for 14 days; assay type: ADME, organism-based; settings: in vivo
# [13] = Toxicity in SCID Beige nude mouse xenografted with human NCI-H2228 cells harboring EML4-fused ALK variant assessed as change in body weight at 30 mg/kg, po administered once daily for 14 days and measured twice per week for 14 days during compound dosing; assay type: organism-based; settings: in vivo, 336 h
smiles,measurement,setting,value
[2H]C([2H])([2H])C([2H])(Oc1cc(C2CCNCC2)c(C)cc1Nc1ncc(Cl)c(Nc2ccccc2S(=O)(=O)C(C)C)n1)C([2H])([2H])[2H],IC50,[1],28.4 nM
same,IC50,[2],111 nM
[2H]c1ccc(Nc2nc(Nc3cc(C)c(C4CCNCC4)cc3OC(C)C)ncc2Cl)c(S(=O)(=O)C(C)C)c1,IC50,[1],28.5 nM
same,IC50,[2],97 nM
COc1cc(C2CCNCC2)c(C)cc1Nc1ncc(Cl)c(Nc2ccccc2S(=O)(=O)C(C)C)n1,TGI,[3],Dose-dependent effect
[2H]c1c(C)c(C2CCNCC2)cc(OC(C)C)c1Nc1ncc(Cl)c(Nc2ccccc2S(=O)(=O)C(C)C)n1,IC50,[1],24.7 nM
same,IC50,[2],98.5 nM
[2H]C([2H])([2H])C([2H])([2H])Oc1cc(C2CCNCC2)c(C)cc1Nc1ncc(Cl)c(Nc2ccccc2S(=O)(=O)C(C)C)n1,IC50,[4],37 nM
same,IC50,[5],106 nM
same,IC50,[1],6 nM
same,IC50,[2],45.5 nM
same,IC50,[6],51.6 nM
Cc1cc(Nc2ncc(Cl)c(Nc3ccccc3S(=O)(=O)C(C)C)n2)c(OC(C)C)cc1C1CCNCC1 [CERITINIB],IC50,[1],27.2 nM
same,IC50,[2],97 nM
same,inhibition in vivo at 10 mg/kg,[7],26%
[2H]C([2H])([2H])Oc1cc(C2CCNCC2)c(C)cc1Nc1ncc(Cl)c(Nc2ccccc2S(=O)(=O)C(C)C)n1,IC50,[4],18.7 nM
same,AUCt,[8],6980 ng·h/mL
same,Tmax,[9],6 to 8 h
same,IC50,[5],71 nM
same,IC50,[1],4 nM
same,bioavailability,[10],60%
same,IC50,[2],41.3 nM
same,inhibition in vivo at 30 mg/kg,[11],77%
same,inhibition in vivo at 10 mg/kg,[7],53%
same,Cmax,[12],508 ng/mL
same,IC50,[6],36.8 nM
same,Activity,[13],Non-Toxic
